According to article PMC8315060, “N-terminus-independent activation of c-Src via binding to a tetraspan(in) TM4SF5 in hepatocellular carcinoma is abolished by the TM4SF5 C-terminal peptide application” (Theranostics, 2021):
Where a SMILES comes first, the peptide text is derived from it.

How the values were obtained:
SNU761-TM4SF5 cells = assay: Transwell chemotactic migration of SNU761-TM4SF5 cells with PP2; format: cell-based, human; conditions: PP2 10 μM, transwell migration 4 h, 10% FBS; Figure 3F and S2B
Description: SNU761 cells stably expressing TM4SF5WT were transiently transfected with control siRNA against a scrambled sequence (siControl) or PTP1B (siPTP1B) for 48 h before undergoing the Transwell migration assay for 4 h. Cells were treated with the CPPs before being loaded into the upper chambers. The cells were then analyzed for migration or invasion using Transwell chambers with 8-μm pores (Corning Inc., Corning, NY, USA), where the bottom chamber was filled with 1% BSA alone (in serum-free media) or normal culture media containing 10% FBS as explained previously. After incubation, the number of migrated cells from randomly saved images (n = 10) per condition was counted. The data are graphed as the mean ± standard deviation (SD) for each experimental condition.
Figure S2. TM4SF5-mediated invasion and migration involves PTP1B-regulated c-Src activity. (A) SNU761 cells stably expressing mock or TM4SF5WT were transiently transfected without (No T/F) or with c-Src WT, c-Src SH432, or c-Src SH1 expression constructs for 48 h prior to invasive ECM degradation analysis for 4 h. (B) SNU761 cells stably expressing TM4SF5WT were transiently transfected with control siRNA against a scrambled sequence (siControl) or a sequence in PTP1B (siPTP1B) for 48 h, prior to transwell migration assay for 4 h. […]

[1] = test system: SNU449Tp cells expressing FAK-KD; assay: Transwell migration of FAK-KD-expressing SNU449Tp cells with PP2 or PP3; format: cell-based, human; conditions: SNU449Tp cells infected with FAK-KD adenovirus, 10 μM, transwell migration 12 h, 10% FBS in lower chamber; Figure S1C
[2] = test system: SNU449T7 cells stably expressing TM4SF5; assay: Mouse tumor xenograft of TM4SF5-expressing SNU449 cells; format: in vivo, BALB/c-nu/nu mice
Description: Mouse tumor xenograft: Four-week-old female or male BALB/c-nu/nu mice were purchased from Orient Co. Ltd (Seungnam, Korea). All animal procedures were performed in accordance with the Seoul National University Laboratory Animal Maintenance Manual and with Institutional Review Board approval (SNU-130311-6-2, SNU-140423-11-7). Mice were housed in a specific pathogen-free room under controlled temperature and humidity. Viable SNU449T7 cells (5 × 10^6) stably expressing TM4SF5 or PLC/PRF/5 cells (10^7) endogenously expressing TM4SF5 were resuspended in sterile PBS and injected subcutaneously into 5-week-old mice (n = 5 or 6, respectively). […] Body weight and tumor volume, which was determined as described previously, were measured daily.
Figure 7 TM4SF5 C-terminal peptides suppress TM4SF5-mediated tumorigenesis and metastasis. […] (E) Degradation of Oregon Green® 488-conjugated gelatin were analyzed for SNU761 cells stably expressing mock (mock) or TM4SF5WT with the 10 μM CPPs treatment for 24 h (mean ± SD values). (F) TM4SF5-null SNU449Cp (Cp) and stably TM4SF5-expressing SNU449Tp (Tp) cells were treated with the 10 μM CPPs for 24 h and then analyzed for transwell migration for 4 h (mean ± SD values in the graph). […] Surface nodules were counted and the mean ± SD values are presented (graph). […]

[3] = Stability of peptides in mouse serum; format: in vitro ADME; conditions: C57BL/6 mouse serum, 10 ppm/reaction, 24 h vs 0 h (without mixing with serum), formic acid precipitation, LC (ZORBAX Eclipse C18) with ELSD; one range printed for both peptides; Figure S6A
Description: collected after centrifugation at 13,000 × g for 10 min and stored at -20 ℃. To analyze, we used the ZORBAX Eclipse C18 Column (2.6 × 250 mm, 5 μm) in the Agilent 1200 Infinity LC and kept the column temperature at 40 ℃. Injection volume from samples was 20 μL and for the mobile phase, MS grade water with 0.1% formic acid (‘a’) and MS grade acetonitrile (‘b’) were flowed at the velocity of 1 mL/min. The gradient per sample was ‘a’ (5%)/’b’(95%) for 0 and 5 min, ‘a’ (90%)/’b’(10%) for 10 min, and ‘a’ (40%)/’b’(60%) for 15 min. Agilent 1260 infinity ELSD was used with an LC stack for detection. […]

STrEP-tagged TM4SF5WT = STrEP-tagged TM4SF5WT (UniProt O14894); assay: streptavidin pull-down and immunoblot; conditions: SNU449 cells with STrEP-TM4SF5; 50 kDa band, IP: STrEP lanes
Sequence of STrEP-tagged TM4SF5WT (O14894 whole entry): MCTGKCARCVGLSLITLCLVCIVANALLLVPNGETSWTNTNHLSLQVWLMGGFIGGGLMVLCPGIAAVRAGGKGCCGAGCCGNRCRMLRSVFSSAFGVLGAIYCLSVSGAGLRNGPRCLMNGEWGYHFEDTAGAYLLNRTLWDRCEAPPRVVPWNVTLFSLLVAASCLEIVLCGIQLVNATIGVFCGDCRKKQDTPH

response (relative band intensity (ImageJ ratio)) (STrEP-tagged TM4SF5WT)	Compound	peptide remaining after incubation in mouse serum [3]	other results
0	c-Src-SH321 Y419F; Y530F		
0	c-Src-SH321 Y530F		

Second part, the compound before the results:

Compound	response (relative band intensity (ImageJ ratio)) (STrEP-tagged TM4SF5WT)	peptide remaining after incubation in mouse serum [3]	other results
CC(C)(C)n1nc(-c2ccc(Cl)cc2)c2c(N)ncnc21 [PP2]			chemotactic migration of SNU761-TM4SF5 cells (SNU761-TM4SF5 cells): abolished; residual migration of FAK-KD cells [1]: abolished; TM4SF5-dependent tumor formation in xenograft ([2]; 3 mg/kg subcutaneous injection every day for 10 days, n = 4, Figure S5A): suppressed TM4SF5-dependent tumor formation; effect on xenograft tumor growth, 15-day treatment ([2]; n = 6, 15 days, PP2 3 mg/kg, TCsr 0.111 nmol/g, TcxC 0.095 nmol/g, Figure S5B): suppressive effect
C[C@@H](O)[C@H](NC(=O)[C@@H]1CCCN1C(=O)[C@H](CCCNC(=N)N)NC(=O)[C@H](CCCNC(=N)N)NC(=O)[C@H](CCCNC(=N)N)NC(=O)[C@H](CCC(N)=O)NC(=O)[C@H](CCCNC(=N)N)NC(=O)[C@H](CCCNC(=N)N)NC(=O)[C@H](CCCCN)NC(=O)[C@H](CCCCN)NC(=O)[C@@H](N)CCCNC(=N)N)C(=O)N[C@@H](CS)C(=O)N[C@@H](CCCCN)C(=O)N1CCC[C@H]1C(=O)N[C@@H](CC(=O)O)C(=O)N[C@@H](CCCCN)C(=O)NCC(=O)N[C@@H](CCC(N)=O)C(=O)N[C@@H](CCCNC(=N)N)C(=O)N[C@@H](Cc1c[nH]cn1)C(=O)N[C@@H](CC(=O)O)C(=O)O [TCsr] (H-RKKRRQRRRPTCKPDKGQRHD-OH)		44-65%	
CC[C@H](C)[C@H](NC(=O)[C@@H](NC(=O)[C@H](CS)NC(=O)[C@@H]1CCCN1C(=O)[C@H](CCCNC(=N)N)NC(=O)[C@H](CCCNC(=N)N)NC(=O)[C@H](CCCNC(=N)N)NC(=O)[C@H](CCC(N)=O)NC(=O)[C@H](CCCNC(=N)N)NC(=O)[C@H](CCCNC(=N)N)NC(=O)[C@H](CCCCN)NC(=O)[C@H](CCCCN)NC(=O)[C@@H](N)CCCNC(=N)N)C(C)C)C(=O)N[C@@H](CCSC)C(=O)NCC(=O)N[C@@H](CC(=O)O)C(=O)N[C@@H](CS)C(=O)N[C@@H](CCCNC(=N)N)C(=O)N[C@@H](CCCCN)C(=O)N[C@@H](CCCCN)C(=O)N[C@@H](CCC(N)=O)C(=O)N[C@@H](CC(=O)O)C(=O)N[C@H](C(=O)N1CCC[C@H]1C(=O)N[C@@H](Cc1c[nH]cn1)C(=O)O)[C@@H](C)O [TcxC] (H-RKKRRQRRRPCVIMGDCRKKQDTPH-OH)		44-65%	
c-Src-SH321 Y419F	1		
